# Values joined by “and” are separate entries in the source; they are usually repeats but may differ in a detail not shown here. Identical values can stand only once. Marks after values point to notes of the source that are not given here.
# Legend:
# [1] = test system: wild type murine breast carcinoma cells (16/C cell line); assay: Wild-type 16/C tumors in nude mice; type: in vivo; settings: FIG. 6
# Protocol: For studies conducted with nu/nu mice, cells obtained from stable cultures of transduced cell lines were injected subcutaneously into the right or left flank of the mice. Mice with visible tumor growth were used for further studies. For the administration of purine prodrug, mice were administered MeP-dR or F-araAMP by IP injection.
# Four to five nude (nu/nu) mice per group were inoculated with wild type murine breast carcinoma cells (16/C cell line), or PNP transduced 16/C cells. Mice with established tumors (approximately 100 mm^3) were treated with MeP-dR (100 mg/kg/d IP×3 d) or F-araAMP (100 mg/kg/IP 3 id×3 d).
# human PNP = biological target: T1, human PNP (Homo sapiens, UniProt P00491); assay: Cleavage of purine analog nucleosides by human PNP (HPLC); type: biochemical
# T1 sequence (P00491 1-289): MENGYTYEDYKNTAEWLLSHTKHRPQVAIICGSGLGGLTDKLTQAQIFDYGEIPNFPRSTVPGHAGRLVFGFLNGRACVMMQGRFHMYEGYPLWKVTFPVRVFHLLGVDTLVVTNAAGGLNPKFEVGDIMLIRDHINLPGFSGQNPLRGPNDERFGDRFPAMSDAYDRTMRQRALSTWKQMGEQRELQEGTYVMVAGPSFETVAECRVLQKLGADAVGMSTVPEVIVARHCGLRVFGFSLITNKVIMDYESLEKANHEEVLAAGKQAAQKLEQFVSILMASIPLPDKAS
# 16/C-PNP tumors = assay: E. coli PNP-transduced 16/C tumors in B6C3F1 mice; type: in vivo
# Protocol: Transduced 16/C cells were implanted in mice by subcutaneous injection of approximately 10^6 cells harvested from the cultures of stably transduced 16/C cells described above. The mice were examined visibly for tumor growth and those with developing tumors were maintained. To prepare mice for use in the in vivo experiments, the tumors were removed from mice with significant tumor growth and cut into 30-60 mg pieces. One 30-60 mg piece of the tumor was subcutaneously implanted into the subaxillary region of each female B6C3F1 mouse. The tumors were allowed to develop and mice with tumors of 100 mm^3 were used.
# Six mice per group with established PNP-transduced 16/C tumors were treated with aqueous control solution, MeP-dR or F-ara AMP, as above. […] (Table III, 16/C-PNP treatment.)
# [2] = test system: T-84 colon carcinoma cells; assay: Killing of T-84 cells transfected with SV-PNP (DOTAP/DOPE); type: cell-based, human; settings: 30 μg/ml, day 6
# Source text: To eliminate possible toxicity associated with the non-hydrolyzable cationic lipid component of the LipofectinJ, an alternative liposome transfection vehicle was used in the killing experiments. A liposome vehicle consisting of a 1:1 (weight/weight) mixture of the cationic lipid DOTAP (1,2-dioleoyloxy-3-(trimethylammonium)-propane) and the neutral lipid DOPE (dioleoyl-phosphatidylethanolamine) (Avanti Polar Lipids) display transfection properties similar to LipofectinJ, but with less toxicity (data not shown). DOTAP/DOPE liposomes were prepared by mixing 0.5 mg of DOTAP and 0.5 mg of DOPE and evaporating the chloroform solvent. Following the addition of 500 μl of cyclohexane, the mixture was placed on dry ice and lyophilized. One ml of sterile water was added to the powdered lipids and the solution was vortexed every 5 minutes for 30 minutes. T-84 or Mel-1 cells were seeded at 30% confluency in 24-well plates and allowed to grow overnight. […]
# In cells that received the PNP or control plasmids, the media was changed two days after transfection and MeP-dR (6-methylpurine-deoxyriboside) added to the appropriate wells to a final concentration of 30 μg/ml. […] Two days later (day 6), the cells were washed once with PBS, resuspended, and counted in a 20% solution of trypan blue reagent (Trypan Blue Stain 0.4%, Gibco-BRL, Gaithersburg, Md.) using a hemacytometer. […]
# E. coli PNP = E. coli PNP (Escherichia coli, UniProt P0ABP8); type: cell-based; settings: 160 μM, 5 day period, E. coli PNP transfected cells
# Chain of E. coli PNP (P0ABP8 2-239): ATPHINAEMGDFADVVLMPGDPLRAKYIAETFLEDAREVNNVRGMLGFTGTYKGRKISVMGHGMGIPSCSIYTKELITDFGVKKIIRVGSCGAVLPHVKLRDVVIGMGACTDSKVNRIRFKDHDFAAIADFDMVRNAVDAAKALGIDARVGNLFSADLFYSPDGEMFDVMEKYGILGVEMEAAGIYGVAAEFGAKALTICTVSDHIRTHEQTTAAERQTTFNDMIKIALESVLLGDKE
# 16/C-PNP cells = assay: 16/C-PNP tumors in athymic nude mice
# [3] = IP for three days, MeP-dR 100, F-araAMP 500 mg/kg/day
smiles,measurement,setting,value
"Cc1ncnc2c1ncn2[C@H]1C[C@H](O)[C@@H](CO)O1 [MeP-dR, 9-(β-D-2-deoxyerythropentofuranosyl)-6-methylpurine]",Effect on growth of wild-type 16/C tumors,[1],only a small effect on tumor growth
same,"Percent of substrate cleaved by Human PNP, 100 μM",human PNP,0(86) Percent and 0%
same,"Percent of substrate cleaved by Human PNP, 1 mM",human PNP,0(47) Percent and 0%
same,Substrate quality for mammalian (human) PNP,human PNP,poor substrates
same,Complete Regressions/Total,16/C-PNP tumors; [3],three of six and 3/6
same,Day delay (Treated-control),16/C-PNP tumors; [3],5.4 days
same,Nonspecific Deaths/Total,16/C-PNP tumors; [3],2/6****
same,"Delay in time for three tumor doublings, in words",16/C-PNP tumors; p<0.01,statistically significant delay
same,Killing of T-84 cells transfected with SV-PNP,[2],susceptible to killing
same,MeP-dR converted to MeP in culture medium,E. coli PNP,More than 75%
same,"Tumor detection, early treatment group",16/C-PNP cells; 100 mg/kg IP days 1-4,none of the mice had any detectable tumor up to 18 days post engraftment
same,"Deaths, early treatment group","16/C-PNP cells; 100 mg/kg IP days 1-4, n=4",two more died at day 20
same,"Survival, late treatment group","16/C-PNP cells; 100 mg/kg IP days 13, 14, 15",All of these animals survived for the complete experiment
same,"Tumor size, late treatment group","16/C-PNP cells; 100 mg/kg IP days 13, 14, 15",did not increase in size after day 15
same,Antitumor effect of MeP-dR on PNP-transduced 16/C tumors,16/C-PNP cells; days 13-15 or days 1-4,substantial antitumor effects

# Source: patent US6958318B2, “Recombinant bacterial cells for delivery of PNP to tumor cells” (The UAB Research Foundation, priority 1993, dated 2005)
